# Measured values as given in US10232043B2, “Photoactivated molecules for light-induced modulation of the activity of electrically excitable cells and methods of using the same” (UNIVERSITY OF SOUTHERN CALIFORNIA, priority 2015, dated 2019).
# “Also recorded” adds a separate entry of the source.
# Legend:
# [1] = test system: HEK293T cells; test: Whole cell patch clamp, current-clamp membrane potential under light; type: cell-based, human
# Method: Membrane potential was monitored using whole cell patch clamp in current-clamp mode. Cultured cells (INS and HEK293) were plated on a glass-bottomed culture dishes 1-3 days prior to recording. Cells were incubated in standard extracellular solution with or without 10 μM RubpyC17 compound for approximately 1.5-2 minutes, then washed and incubated with standard extracellular solution without additional supplementation, or with 2-5 mM ascorbate, 100 μM sodium ferrocyanide, or 100-200 μM potassium ferricyanide, as indicated. The chamber was transferred to the microscope stage. Extracellular solution consisted of 140 mM NaCl, 2.8 mM KCl, 10 mM HEPES, 1 mM MgCl2, 2 mM CaCl2, 10 mM glucose, pH adjusted to 7.3, and osmolarity adjusted to 300-310. Conventional whole-cell patch clamp recordings were performed with an EPC-9 amplifier and Pulse software (HEKA Electronics). Pipette electrodes of 1.8-3.5 Mohm were fire polished before use. Intracellular solution consisted of: 145 mM KCl, 10 mM NaCl, 1 mM MgCl2, 1 mM EGTA, 2 mM ATP, 0.3 mM GTP and 10 mM HEPES, pH adjusted to 7.3 and osmolarity adjusted to 290-300 mOsm. To monitor changes in membrane voltage/potential, cells were patch clamped in current-clamp mode. Access resistances were in the range of 3-8 Mohm. Using Pulse, membrane potentials were recorded before, during and after illumination by the argon ion laser at 488 nm with an irradiance value of 0.458 mE s^−1 m^−2 or by a xenon lamp source through a 470/40 nm bandpass excitation filter with an irradiance value of 0.480 mE s^−1 m^−2. […]
# Initial attempts were tied to INS and HEK cells, both cells that are not excitable under normal conditions (INS cells were maintained in low glucose <3 mM to prevent action potentials). […] To monitor the plasma membrane potential, the cells were patch-clamped in whole-cell configuration in current-clamp mode and membrane voltages were recorded while illuminating the cell at 488 nm (0.46-0.48 mE s^−1 m^−2), though other wavelengths are useful, depending on the embodiment. […]
# [2] = test system: leech ganglion neurons; test: Leech ganglion neurons, light-induced action potential firing; type: cell-based, Hirudo verbana; conditions: ex vivo leech ganglia
# Method: Adult leeches Hirudo verbana will be obtained from Niagara Medical Leeches, Inc. (Westbury, N.Y., USA). Groups (20-30) of animals will be kept in glass aquaria with artificial pond water (36 mg/L Instant Ocean salts; Aquarium Systems, Mentor Ohio), in a temperature-controlled room at 16° C. and a 12:12 h light:dark cycle. At the time of experiments, leeches will weigh 1-3 g. Before dissection, the leech will be anesthetized in ice-cold leech saline. Leech saline has the following composition (in mM per liter): NaCl—115, KCl—4, CaCl2—1.8, MgCl2—2, HEPES—10, D-Glucose—5 (Sigma-Aldrich, USA). Individual ganglia will be dissected from the mid-body segments M6-M12, and pinned down in Sylgard-filled dissection box. Medial dorsal longitudinal incision will be made and the blood will be flushed away. Connective tissue and the blood vessel overlaying the ganglion chain will be incised. Dissected ganglia will be transferred to a Petri dish, pinned down in paraffin with six stainless steel pins (dorsal side up). PVNs will be microinjected into the extracellular space of the ganglion with a glass micropipette. Intracellular recording will be performed by penetrating the Retzius neurons with sharp glass electrodes (20-30 MOhm) filled with 3M potassium acetate. […] Neuronal firing will be recorded before and after the injections.
# [3] = test system: HEK293T cells; test: Effect of PF6:Cl counter ion ratio of Rubpy-C17 on HEK293T cells; type: cell-based
# Method: In some embodiments, the 20 mg of Rubpy-C17 is stored in −20° C. with desiccant in the dark. […] 253 μl of DMSO is then added into the original bottle containing Rubpy-C17 to make 100 mM stock solution. In some embodiments, the stock solution is aliquot and stored in −20° C. with desiccant in the dark.
# In some examples, on the day before or on, the same day of the experiment, the following 2.5 mM external solution is prepared using the following steps. The external solution is warmed up to 37° C. For […] of the external solution, 0.176 grams of absorbic acid was added. Another 240 μL 5M NaOH was added to adjust the pH to between about 7.2-7.4. The absorbic solution can then be filtered through a 0.2 μm filter. The solution is then stored in the dark in 4° C. In some examples, the solution must be used within one week.
# The 100 mM of Rubpy solution is first thawed from −20° C. 100 mM Rubpy is then diluted to 10 mM Rubpy: 2 μL 100 mM Rubpy+18 μL DMSO. In some examples, this is vortexted to mix and then centrifuged down with a small bench-top. The culture, medium is aspirated and the cells are rinsed with external solution several times. The external solution can then be aspirated. In some examples, enough of the external solution is left on the cells to prevent it from drying. 500 μL of external solution with 2.5 mM of ascorbic acid can then be added.
# In some examples, 1 μL of 10 mM of Rubpy to […] of external solution with 2.5 mM ascorbic acid and mixed well. This should produce a final concentration of 10 μM of Rubpy with 0.1% DMSO. This mixed solution is then added to the above referenced cells and incubated for 10 minutes.
# The solution can then be aspirated from the plate and rinsed with regular external solution several times. 2 mL of external solution is added to 2.5 mM ascorbic acid for recording. For each plate, a baseline control is taken by recording the first cell before performing any light-stimulating protocol. The light-stimulus can include 10-40 s in duration and bandpassed at 455-495 nm (blue light).
# As discussed above, the mixture a 10 μM of RubpyC17 solution was placed in 10 HEK293T cells.
smiles,measurement,setting,value
"CCCCCCCCCCCCCCCCCc1ccnc(-c2cc(C)ccn2)c1.F[P-](F)(F)(F)(F)F.F[P-](F)(F)(F)(F)F.[Ru+2].c1ccc(-c2ccccn2)nc1.c1ccc(-c2ccccn2)nc1 [RubpyC17, [Ru(bpy)2(bpy-C17)](PF6)2]",light-induced hyperpolarization,[1]; 100 uM ferricyanide in extracellular solution,20.9 ± 4.9 mV
same,light-induced depolarization with ferrocyanide as reductant,"[1]; HEK293T, 0.1 mM ferrocyanide",light-induced depolarization was also observed
same,light-induced depolarization,"[1]; HEK293 cells, presence of ascorbate",14.6 ± 2.4 mV
same,light-induced action potential firing,[2],respond to illumination by firing action potentials; also recorded: light-induced increases in action potential firing
same,fluorescence pattern,[3]; only PF6 counter ions,punctuate fluorescence
same,Cell Death,[3]; only counter ion is chloride,cell death is observed
